Assay results reported in ChEMBL document CHEMBL3991601, “The target landscape of clinical kinase drugs” (Science, 2017).
Activity calls are given as the source filed them. Rule as the data show it, for most assays here: actives have a measured Kd and inactives only a lower limit.

Assays:
[1] = target: T1, Acyl-CoA dehydrogenase family member 11 (Homo sapiens, UniProt Q709F0)
T1 sequence (Q709F0 whole entry): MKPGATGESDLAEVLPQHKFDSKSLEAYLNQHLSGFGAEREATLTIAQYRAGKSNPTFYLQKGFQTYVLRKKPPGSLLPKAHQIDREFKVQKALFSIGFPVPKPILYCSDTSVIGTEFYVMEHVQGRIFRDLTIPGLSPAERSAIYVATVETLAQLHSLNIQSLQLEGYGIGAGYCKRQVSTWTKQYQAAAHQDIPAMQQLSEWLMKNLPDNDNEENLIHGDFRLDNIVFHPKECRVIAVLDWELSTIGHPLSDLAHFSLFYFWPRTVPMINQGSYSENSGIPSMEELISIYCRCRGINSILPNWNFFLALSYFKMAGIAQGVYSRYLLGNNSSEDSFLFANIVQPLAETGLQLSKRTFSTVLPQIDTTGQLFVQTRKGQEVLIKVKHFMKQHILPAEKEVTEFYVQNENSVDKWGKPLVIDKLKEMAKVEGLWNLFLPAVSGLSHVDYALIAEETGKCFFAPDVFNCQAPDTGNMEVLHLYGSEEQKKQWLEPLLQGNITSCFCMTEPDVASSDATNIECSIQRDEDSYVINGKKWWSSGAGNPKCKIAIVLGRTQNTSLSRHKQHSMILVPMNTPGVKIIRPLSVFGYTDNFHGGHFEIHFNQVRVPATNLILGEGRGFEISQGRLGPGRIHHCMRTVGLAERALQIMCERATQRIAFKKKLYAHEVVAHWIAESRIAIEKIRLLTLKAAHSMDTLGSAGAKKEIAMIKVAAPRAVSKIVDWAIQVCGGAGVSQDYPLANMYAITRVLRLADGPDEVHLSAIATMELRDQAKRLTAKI

[2] = target: Receptor-interacting serine/threonine-protein kinase 3 (Homo sapiens, UniProt Q9Y572)
[3] = target: T2, Mitogen-activated protein kinase kinase kinase 2 (Homo sapiens, UniProt Q9Y2U5)
T2 sequence (Q9Y2U5 whole entry): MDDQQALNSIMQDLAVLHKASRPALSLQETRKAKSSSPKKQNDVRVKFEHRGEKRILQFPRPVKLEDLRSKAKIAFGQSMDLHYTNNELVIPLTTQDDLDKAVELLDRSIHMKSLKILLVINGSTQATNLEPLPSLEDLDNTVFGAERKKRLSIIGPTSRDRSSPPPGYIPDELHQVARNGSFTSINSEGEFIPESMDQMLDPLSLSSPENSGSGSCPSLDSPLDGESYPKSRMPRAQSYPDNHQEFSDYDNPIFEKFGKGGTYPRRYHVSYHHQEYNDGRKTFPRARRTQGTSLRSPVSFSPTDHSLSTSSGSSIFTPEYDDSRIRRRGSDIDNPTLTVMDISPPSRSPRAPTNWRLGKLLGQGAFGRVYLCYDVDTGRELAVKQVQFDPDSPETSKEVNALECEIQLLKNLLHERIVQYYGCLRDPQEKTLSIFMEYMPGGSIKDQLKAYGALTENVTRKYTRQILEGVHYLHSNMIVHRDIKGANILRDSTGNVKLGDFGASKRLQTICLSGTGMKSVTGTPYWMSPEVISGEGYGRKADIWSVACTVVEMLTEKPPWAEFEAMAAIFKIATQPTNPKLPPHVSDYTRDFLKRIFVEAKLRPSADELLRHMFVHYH

[4] = target: Deoxycytidine kinase (Homo sapiens, UniProt P27707)
[5] = target: T3, Phenylalanine--tRNA ligase beta subunit (Homo sapiens, UniProt Q9NSD9)
T3 sequence (Q9NSD9 whole entry): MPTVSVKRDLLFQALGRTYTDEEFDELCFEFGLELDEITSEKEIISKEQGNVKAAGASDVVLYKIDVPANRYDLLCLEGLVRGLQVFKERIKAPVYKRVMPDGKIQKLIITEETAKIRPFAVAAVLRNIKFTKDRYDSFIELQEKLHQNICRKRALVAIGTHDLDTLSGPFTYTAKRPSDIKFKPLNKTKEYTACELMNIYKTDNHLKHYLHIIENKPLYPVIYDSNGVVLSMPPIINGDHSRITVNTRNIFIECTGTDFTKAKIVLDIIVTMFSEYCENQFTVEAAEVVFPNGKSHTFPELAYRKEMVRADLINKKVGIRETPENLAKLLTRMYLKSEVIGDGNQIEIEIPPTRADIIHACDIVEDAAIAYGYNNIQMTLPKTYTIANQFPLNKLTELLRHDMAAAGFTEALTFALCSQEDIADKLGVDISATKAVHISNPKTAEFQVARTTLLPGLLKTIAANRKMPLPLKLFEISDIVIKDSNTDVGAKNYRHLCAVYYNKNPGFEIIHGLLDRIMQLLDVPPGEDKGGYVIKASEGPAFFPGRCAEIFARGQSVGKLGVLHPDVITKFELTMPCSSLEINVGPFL

[6] = target: Tyrosine-protein kinase HCK (Homo sapiens, UniProt P08631)
[7] = target: Insulin-like growth factor 1 receptor (Homo sapiens, UniProt P08069)
[8] = target: Tyrosine-protein kinase SYK (Homo sapiens, UniProt P43405)
[9] = target: MAP kinase-activated protein kinase 2 (Homo sapiens, UniProt P49137)
[10] = target: Cyclin-dependent kinase 1 (Homo sapiens, UniProt P06493)
Also: in the data inactive means no Kd found up to 30 µM.

Sequence of Tyrosine-protein kinase HCK (P08631 whole entry): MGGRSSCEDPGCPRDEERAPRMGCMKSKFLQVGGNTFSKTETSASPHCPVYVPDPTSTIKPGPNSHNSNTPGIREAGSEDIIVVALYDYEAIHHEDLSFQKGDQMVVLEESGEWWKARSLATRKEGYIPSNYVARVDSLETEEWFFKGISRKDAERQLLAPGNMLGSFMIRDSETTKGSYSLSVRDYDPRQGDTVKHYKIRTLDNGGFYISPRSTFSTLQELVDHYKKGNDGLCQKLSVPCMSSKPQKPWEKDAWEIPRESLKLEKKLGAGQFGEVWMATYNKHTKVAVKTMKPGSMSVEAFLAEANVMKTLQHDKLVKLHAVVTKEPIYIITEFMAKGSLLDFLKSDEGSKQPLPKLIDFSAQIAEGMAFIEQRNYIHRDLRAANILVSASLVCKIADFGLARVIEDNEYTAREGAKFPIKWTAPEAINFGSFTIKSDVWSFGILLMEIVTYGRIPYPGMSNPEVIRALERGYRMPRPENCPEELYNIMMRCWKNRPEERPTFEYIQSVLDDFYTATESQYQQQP
Sequence of Insulin-like growth factor 1 receptor (P08069 31-736 limits assumed): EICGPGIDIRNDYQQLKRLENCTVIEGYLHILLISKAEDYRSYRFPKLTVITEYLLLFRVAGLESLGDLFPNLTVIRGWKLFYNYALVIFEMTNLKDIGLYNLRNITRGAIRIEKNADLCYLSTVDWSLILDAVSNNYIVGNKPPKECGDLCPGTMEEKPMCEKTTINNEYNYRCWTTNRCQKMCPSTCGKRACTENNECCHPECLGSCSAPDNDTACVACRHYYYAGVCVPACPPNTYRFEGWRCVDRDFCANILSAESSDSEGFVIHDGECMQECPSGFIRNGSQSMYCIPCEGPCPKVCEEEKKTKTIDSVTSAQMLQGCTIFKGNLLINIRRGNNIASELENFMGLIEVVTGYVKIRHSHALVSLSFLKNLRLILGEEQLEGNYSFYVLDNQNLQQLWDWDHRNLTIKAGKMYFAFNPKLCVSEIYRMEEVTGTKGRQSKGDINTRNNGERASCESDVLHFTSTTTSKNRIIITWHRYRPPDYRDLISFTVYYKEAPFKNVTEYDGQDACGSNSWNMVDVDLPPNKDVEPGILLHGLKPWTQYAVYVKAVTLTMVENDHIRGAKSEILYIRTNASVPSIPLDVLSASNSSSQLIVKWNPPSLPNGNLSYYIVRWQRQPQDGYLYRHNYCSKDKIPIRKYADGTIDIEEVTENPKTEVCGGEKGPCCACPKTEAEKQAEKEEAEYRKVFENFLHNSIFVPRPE
Sequence of Insulin-like growth factor 1 receptor (P08069 741-1367 limits assumed): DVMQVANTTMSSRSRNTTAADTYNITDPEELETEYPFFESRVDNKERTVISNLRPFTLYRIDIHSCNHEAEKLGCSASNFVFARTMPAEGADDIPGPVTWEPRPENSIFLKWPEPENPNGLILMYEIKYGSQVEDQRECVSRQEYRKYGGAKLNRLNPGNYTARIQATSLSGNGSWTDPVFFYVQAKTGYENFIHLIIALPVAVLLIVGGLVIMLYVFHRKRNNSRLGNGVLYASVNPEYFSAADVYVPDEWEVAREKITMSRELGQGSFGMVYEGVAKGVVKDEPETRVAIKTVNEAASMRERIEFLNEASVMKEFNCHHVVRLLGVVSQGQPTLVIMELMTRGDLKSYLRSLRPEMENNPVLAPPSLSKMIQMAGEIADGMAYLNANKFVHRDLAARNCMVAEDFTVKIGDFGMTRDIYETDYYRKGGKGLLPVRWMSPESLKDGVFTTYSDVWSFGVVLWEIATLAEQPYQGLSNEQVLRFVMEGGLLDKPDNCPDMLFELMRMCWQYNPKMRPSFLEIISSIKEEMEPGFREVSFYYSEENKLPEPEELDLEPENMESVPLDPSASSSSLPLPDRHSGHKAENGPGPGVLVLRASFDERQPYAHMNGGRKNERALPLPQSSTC
Sequence of MAP kinase-activated protein kinase 2 (P49137 whole entry): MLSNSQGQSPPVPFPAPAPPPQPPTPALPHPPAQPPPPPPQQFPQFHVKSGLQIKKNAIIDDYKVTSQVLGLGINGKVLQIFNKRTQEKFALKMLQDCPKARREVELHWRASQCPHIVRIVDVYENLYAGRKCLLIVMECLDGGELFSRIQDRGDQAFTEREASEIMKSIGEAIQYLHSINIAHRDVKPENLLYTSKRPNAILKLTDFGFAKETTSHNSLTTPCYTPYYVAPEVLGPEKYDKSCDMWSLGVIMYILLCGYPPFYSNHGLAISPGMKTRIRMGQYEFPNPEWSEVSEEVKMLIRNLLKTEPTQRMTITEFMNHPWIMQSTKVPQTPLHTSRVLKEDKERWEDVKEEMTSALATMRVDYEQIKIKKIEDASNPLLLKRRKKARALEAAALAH
Sequence of Deoxycytidine kinase (P27707 whole entry): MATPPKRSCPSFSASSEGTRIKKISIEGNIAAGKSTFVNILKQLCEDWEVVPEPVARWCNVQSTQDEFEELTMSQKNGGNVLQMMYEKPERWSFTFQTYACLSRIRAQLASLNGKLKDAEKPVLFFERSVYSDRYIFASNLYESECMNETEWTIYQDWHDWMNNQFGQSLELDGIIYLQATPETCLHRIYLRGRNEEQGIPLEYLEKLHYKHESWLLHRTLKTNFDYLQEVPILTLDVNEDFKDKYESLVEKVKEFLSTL
Sequence of Receptor-interacting serine/threonine-protein kinase 3 (Q9Y572 whole entry): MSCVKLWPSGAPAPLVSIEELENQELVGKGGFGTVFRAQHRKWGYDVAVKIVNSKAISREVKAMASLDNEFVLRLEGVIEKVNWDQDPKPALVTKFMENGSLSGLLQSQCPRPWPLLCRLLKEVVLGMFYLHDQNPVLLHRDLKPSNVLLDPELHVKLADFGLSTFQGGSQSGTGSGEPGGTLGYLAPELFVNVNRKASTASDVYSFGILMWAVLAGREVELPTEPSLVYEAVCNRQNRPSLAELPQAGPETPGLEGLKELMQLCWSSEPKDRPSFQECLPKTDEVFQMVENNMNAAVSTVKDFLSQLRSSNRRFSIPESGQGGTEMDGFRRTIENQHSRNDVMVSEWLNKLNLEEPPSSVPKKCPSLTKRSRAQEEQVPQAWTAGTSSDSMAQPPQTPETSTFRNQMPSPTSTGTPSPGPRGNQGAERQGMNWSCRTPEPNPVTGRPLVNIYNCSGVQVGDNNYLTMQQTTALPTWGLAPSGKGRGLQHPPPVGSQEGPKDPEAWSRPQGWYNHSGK
Sequence of Cyclin-dependent kinase 1 (P06493 whole entry): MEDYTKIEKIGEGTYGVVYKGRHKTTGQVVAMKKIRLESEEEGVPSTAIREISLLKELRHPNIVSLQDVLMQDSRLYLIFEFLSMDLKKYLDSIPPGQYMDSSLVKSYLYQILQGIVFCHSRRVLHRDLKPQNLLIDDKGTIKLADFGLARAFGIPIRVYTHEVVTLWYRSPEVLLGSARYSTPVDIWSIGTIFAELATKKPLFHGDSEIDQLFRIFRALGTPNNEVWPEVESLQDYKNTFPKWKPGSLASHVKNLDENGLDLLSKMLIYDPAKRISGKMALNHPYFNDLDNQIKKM

SMILES | Kd [1] | Kd [2] | Kd [3] | Kd [4] | Kd [5] | Kd [6] | Kd [7] | Kd [8] | Kd [9] | Kd [10]
C[C@]1(O)C[C@@H](c2nc(-c3ccc4ccc(-c5ccccc5)nc4c3)c3c(N)nccn32)C1 [LINSITINIB] | > 30 µM (inactive) | 6.05 µM (active) | > 30 µM (inactive) | > 30 µM (inactive) | > 30 µM (inactive) | > 30 µM (inactive) | – | – | – | –
O=C(O)c1ccc2c(c1)nc(Nc1cccc(Cl)c1)c1ccncc12 [SILMITASERTIB] | – | 2.18 µM (active) | > 30 µM (inactive) | > 30 µM (inactive) | > 30 µM (inactive) | > 30 µM (inactive) | > 30 µM (inactive) | > 30 µM (inactive) | 5.3 µM (active) | –
CN(c1ncccc1CNc1nc(Nc2ccc3c(c2)CC(=O)N3)ncc1C(F)(F)F)S(C)(=O)=O [PF-00562271] | > 30 µM (inactive) | > 30 µM (inactive) | > 30 µM (inactive) | > 30 µM (inactive) | > 30 µM (inactive) | – | – | – | – | 1.51 µM (active)
Cn1c(=O)n(-c2ccc(C(C)(C)C#N)cc2)c2c3cc(-c4cnc5ccccc5c4)ccc3ncc21 [DACTOLISIB] | > 30 µM (inactive) | > 30 µM (inactive) | > 30 µM (inactive) | > 30 µM (inactive) | > 30 µM (inactive) | > 30 µM (inactive) | – | > 30 µM (inactive) | > 30 µM (inactive) | > 30 µM (inactive)
CN1CCN(c2nc(C3=C(c4c[nH]c5ccccc45)C(=O)NC3=O)c3ccccc3n2)CC1 [SOTRASTAURIN] | – | > 30 µM (inactive) | > 30 µM (inactive) | > 30 µM (inactive) | > 30 µM (inactive) | > 30 µM (inactive) | > 30 µM (inactive) | > 30 µM (inactive) | > 30 µM (inactive) | –
Cn1cnc2c(F)c(Nc3ccc(Br)cc3Cl)c(C(=O)NOCCO)cc21 [SELUMETINIB] | > 30 µM (inactive) | > 30 µM (inactive) | – | > 30 µM (inactive) | > 30 µM (inactive) | – | – | – | – | > 30 µM (inactive)
O=S(=O)(c1cccc2cnccc12)N1CCCNCC1 [FASUDIL] | > 30 µM (inactive) | > 30 µM (inactive) | > 30 µM (inactive) | > 30 µM (inactive) | > 30 µM (inactive) | > 30 µM (inactive) | > 30 µM (inactive) | > 30 µM (inactive) | – | –
CNC(=O)c1cc(COc2nnc(Nc3ccc(Cl)cc3)c3ccoc23)ccn1 [TELATINIB] | – | > 30 µM (inactive) | > 30 µM (inactive) | > 30 µM (inactive) | > 30 µM (inactive) | > 30 µM (inactive) | > 30 µM (inactive) | > 30 µM (inactive) | > 30 µM (inactive) | > 30 µM (inactive)
COc1cc2c(N3CCN(C(=O)Nc4ccc(OC(C)C)cc4)CC3)ncnc2cc1OCCCN1CCCCC1 [TANDUTINIB] | > 30 µM (inactive) | > 30 µM (inactive) | – | > 30 µM (inactive) | 0.006 µM | – | – | – | – | –
COc1cc2c(Oc3ccc4[nH]c(C)cc4c3F)ncnc2cc1OCCCN1CCCC1 [CEDIRANIB] | > 30 µM (inactive) | > 30 µM (inactive) | – | > 30 µM (inactive) | > 30 µM (inactive) | – | – | – | – | > 30 µM (inactive)
COc1cc(Nc2ncc(F)c(Nc3ccc4c(n3)N(COP(=O)(O)O)C(=O)C(C)(C)O4)n2)cc(OC)c1OC [FOSTAMATINIB] | > 30 µM (inactive) | > 30 µM (inactive) | > 30 µM (inactive) | > 30 µM (inactive) | > 30 µM (inactive) | > 30 µM (inactive) | > 30 µM (inactive) | – | > 30 µM (inactive) | > 30 µM (inactive)
C=CCn1c(=O)c2cnc(Nc3ccc(N4CCN(C)CC4)cc3)nc2n1-c1cccc(C(C)(C)O)n1 [ADAVOSERTIB] | > 30 µM (inactive) | > 30 µM (inactive) | > 30 µM (inactive) | > 30 µM (inactive) | > 30 µM (inactive) | > 30 µM (inactive) | – | – | > 30 µM (inactive) | > 30 µM (inactive)
CC1(C)CNc2cc(NC(=O)c3cccnc3NCc3ccncc3)ccc21 [MOTESANIB] | > 30 µM (inactive) | 1.04 µM (active) | – | > 30 µM (inactive) | > 30 µM (inactive) | – | – | – | – | > 30 µM (inactive)
CN(C)C/C=C/C(=O)Nc1cc2c(Nc3ccc(F)c(Cl)c3)ncnc2cc1O[C@H]1CCOC1 [AFATINIB] | > 30 µM (inactive) | > 30 µM (inactive) | – | > 30 µM (inactive) | > 30 µM (inactive) | – | – | – | – | > 30 µM (inactive)
O=c1[nH]c([C@@H]2CCCN2)nc2c1oc1ccc(Cl)cc12 | – | > 30 µM (inactive) | > 30 µM (inactive) | > 30 µM (inactive) | – | > 30 µM (inactive) | > 30 µM (inactive) | > 30 µM (inactive) | > 30 µM (inactive) | > 30 µM (inactive)
C[C@@]1(C(=O)Nc2ccc(F)nc2)CCCN1c1nc(Nc2cc(C3CC3)n[nH]2)c2cccn2n1 [BMS-754807] | > 30 µM (inactive) | > 30 µM (inactive) | – | > 30 µM (inactive) | > 30 µM (inactive) | – | – | – | – | > 30 µM (inactive)
CCN1CCN(Cc2ccc(Nc3ncc(F)c(-c4cc(F)c5nc(C)n(C(C)C)c5c4)n3)nc2)CC1 [ABEMACICLIB] | > 30 µM (inactive) | > 30 µM (inactive) | > 30 µM (inactive) | > 30 µM (inactive) | > 30 µM (inactive) | > 30 µM (inactive) | > 30 µM (inactive) | > 30 µM (inactive) | > 30 µM (inactive) | –
N#CCNC(=O)c1ccc(-c2ccnc(Nc3ccc(N4CCOCC4)cc3)n2)cc1 [MOMELOTINIB] | > 30 µM (inactive) | > 30 µM (inactive) | > 30 µM (inactive) | > 30 µM (inactive) | > 30 µM (inactive) | – | > 30 µM (inactive) | > 30 µM (inactive) | > 30 µM (inactive) | > 30 µM (inactive)
CCN(CCCOc1ccc2c(Nc3cc(CC(=O)Nc4cccc(F)c4)n[nH]3)ncnc2c1)CCOP(=O)(O)O [BARASERTIB] | > 30 µM (inactive) | > 30 µM (inactive) | > 30 µM (inactive) | > 30 µM (inactive) | > 30 µM (inactive) | – | – | > 30 µM (inactive) | > 30 µM (inactive) | > 30 µM (inactive)
O=S(=O)(c1cccc2c(O)nccc12)N1CCCNCC1 [HYDROXYFASUDIL] | > 30 µM (inactive) | > 30 µM (inactive) | > 30 µM (inactive) | > 30 µM (inactive) | > 30 µM (inactive) | > 30 µM (inactive) | > 30 µM (inactive) | > 30 µM (inactive) | – | > 30 µM (inactive)
